Source: ChEMBL document CHEMBL5724914, “Linking interpersonal differences in gut microbiota composition and drug biotransformation activity” (2024)

Assay: (§1) The drug is tested on WLS-007 corresponding to human gut metagenome with ENA study accession number: PRJEB37062 and ENA sample accession number: ERS12561742 for biotransformation under anaerobic condition. The drug concentrations were measured over 9 timepoints collected between 0 and 24 hours of incubation by liquid-chromatography-coupled mass spectrometry (LC–MS)
Settings: 2 µM
Also: call rule not given here.

Bacterial Biotransformation | Structure (SMILES)
Compound metabolized | CCCc1nc2c(C)cc(-c3nc4ccccc4n3C)cc2n1Cc1ccc(-c2ccccc2C(=O)O)cc1
Compound metabolized | CCN(CC)CCOC(=O)C(Cc1cccc2ccccc12)CC1CCCO1.O=C(O)C(=O)O (stereo not given) [NAFRONYL OXALATE]

Settings: human gut metagenome, 24 h, 2 µM

Bacterial Biotransformation | Structure (SMILES)
Compound metabolized | CCCc1nc2c(C)cc(-c3nc4ccccc4n3C)cc2n1Cc1ccc(-c2ccccc2C(=O)O)cc1
Compound NOT metabolized | CCN(CC)CCOC(=O)C(Cc1cccc2ccccc12)CC1CCCO1.O=C(O)C(=O)O (stereo not given) [NAFRONYL OXALATE]

Assay: as §1, with “Z-016” for “WLS-007”, “mouse” for “human”, “ERS12561815” for “ERS12561742”
Settings: 2 µM

Bacterial Biotransformation | Structure (SMILES)
Compound metabolized | CCCc1nc2c(C)cc(-c3nc4ccccc4n3C)cc2n1Cc1ccc(-c2ccccc2C(=O)O)cc1
Compound metabolized | CCN(CC)CCOC(=O)C(Cc1cccc2ccccc12)CC1CCCO1.O=C(O)C(=O)O (stereo not given) [NAFRONYL OXALATE]

Settings: human gut metagenome, 24 h, 2 µM
Remark: another data set of the same source

Bacterial Biotransformation | Structure (SMILES)
Compound metabolized | CCCc1nc2c(C)cc(-c3nc4ccccc4n3C)cc2n1Cc1ccc(-c2ccccc2C(=O)O)cc1
Compound metabolized | CCN(CC)CCOC(=O)C(Cc1cccc2ccccc12)CC1CCCO1.O=C(O)C(=O)O (stereo not given) [NAFRONYL OXALATE]

Settings: human gut metagenome, 24 h, 2 µM
Remark: another data set of the same source

Bacterial Biotransformation | Structure (SMILES)
Compound NOT metabolized | CCCc1nc2c(C)cc(-c3nc4ccccc4n3C)cc2n1Cc1ccc(-c2ccccc2C(=O)O)cc1
Compound metabolized | CCN(CC)CCOC(=O)C(Cc1cccc2ccccc12)CC1CCCO1.O=C(O)C(=O)O (stereo not given) [NAFRONYL OXALATE]

Settings: human gut metagenome, 24 h, 2 µM
Remark: another data set of the same source

Bacterial Biotransformation | Structure (SMILES)
Compound metabolized | CCCc1nc2c(C)cc(-c3nc4ccccc4n3C)cc2n1Cc1ccc(-c2ccccc2C(=O)O)cc1
Compound metabolized | CCN(CC)CCOC(=O)C(Cc1cccc2ccccc12)CC1CCCO1.O=C(O)C(=O)O (stereo not given) [NAFRONYL OXALATE]

Settings: human gut metagenome, 24 h, 2 µM
Remark: another data set of the same source

Bacterial Biotransformation | Structure (SMILES)
Compound metabolized | CCCc1nc2c(C)cc(-c3nc4ccccc4n3C)cc2n1Cc1ccc(-c2ccccc2C(=O)O)cc1
Compound NOT metabolized | CCN(CC)CCOC(=O)C(Cc1cccc2ccccc12)CC1CCCO1.O=C(O)C(=O)O (stereo not given) [NAFRONYL OXALATE]

Assay: as §1, with “Z-017” for “WLS-007”, “mouse” for “human”, “ERS12561816” for “ERS12561742”
Settings: 2 µM

Bacterial Biotransformation | Structure (SMILES)
Compound metabolized | CCCc1nc2c(C)cc(-c3nc4ccccc4n3C)cc2n1Cc1ccc(-c2ccccc2C(=O)O)cc1
Compound NOT metabolized | CCN(CC)CCOC(=O)C(Cc1cccc2ccccc12)CC1CCCO1.O=C(O)C(=O)O (stereo not given) [NAFRONYL OXALATE]

Settings: human gut metagenome, 24 h, 2 µM
Remark: another data set of the same source

Bacterial Biotransformation | Structure (SMILES)
Compound NOT metabolized | CCCc1nc2c(C)cc(-c3nc4ccccc4n3C)cc2n1Cc1ccc(-c2ccccc2C(=O)O)cc1
Compound metabolized | CCN(CC)CCOC(=O)C(Cc1cccc2ccccc12)CC1CCCO1.O=C(O)C(=O)O (stereo not given) [NAFRONYL OXALATE]

Assay: as §1, with “WLS-310” for “WLS-007”, “ERS12561785” for “ERS12561742”
Settings: 2 µM

Bacterial Biotransformation | Structure (SMILES)
Compound metabolized | CCCc1nc2c(C)cc(-c3nc4ccccc4n3C)cc2n1Cc1ccc(-c2ccccc2C(=O)O)cc1
Compound metabolized | CCN(CC)CCOC(=O)C(Cc1cccc2ccccc12)CC1CCCO1.O=C(O)C(=O)O (stereo not given) [NAFRONYL OXALATE]

Assay: as §1, with “Z-013” for “WLS-007”, “rabbit” for “human”, “ERS12561813” for “ERS12561742”
Settings: 2 µM

Bacterial Biotransformation | Structure (SMILES)
Compound metabolized | CCCc1nc2c(C)cc(-c3nc4ccccc4n3C)cc2n1Cc1ccc(-c2ccccc2C(=O)O)cc1
Compound NOT metabolized | CCN(CC)CCOC(=O)C(Cc1cccc2ccccc12)CC1CCCO1.O=C(O)C(=O)O (stereo not given) [NAFRONYL OXALATE]

Settings: human gut metagenome, 24 h, 2 µM
Remark: another data set of the same source

Bacterial Biotransformation | Structure (SMILES)
Compound metabolized | CCCc1nc2c(C)cc(-c3nc4ccccc4n3C)cc2n1Cc1ccc(-c2ccccc2C(=O)O)cc1
Compound metabolized | CCN(CC)CCOC(=O)C(Cc1cccc2ccccc12)CC1CCCO1.O=C(O)C(=O)O (stereo not given) [NAFRONYL OXALATE]

Assay: as §1, with “WLS-073” for “WLS-007”, “ERS12561749” for “ERS12561742”
Settings: 2 µM

Bacterial Biotransformation | Structure (SMILES)
Compound metabolized | CCCc1nc2c(C)cc(-c3nc4ccccc4n3C)cc2n1Cc1ccc(-c2ccccc2C(=O)O)cc1
Compound metabolized | CCN(CC)CCOC(=O)C(Cc1cccc2ccccc12)CC1CCCO1.O=C(O)C(=O)O (stereo not given) [NAFRONYL OXALATE]

Assay: as §1, with “WLS-038” for “WLS-007”, “ERS12561745” for “ERS12561742”
Settings: 2 µM

Bacterial Biotransformation | Structure (SMILES)
Compound metabolized | CCCc1nc2c(C)cc(-c3nc4ccccc4n3C)cc2n1Cc1ccc(-c2ccccc2C(=O)O)cc1
Compound metabolized | CCN(CC)CCOC(=O)C(Cc1cccc2ccccc12)CC1CCCO1.O=C(O)C(=O)O (stereo not given) [NAFRONYL OXALATE]

Assay: as §1, with “Z-008” for “WLS-007”, “to” for “to human gut”, “ERS12561808” for “ERS12561742”
Settings: 2 µM

Bacterial Biotransformation | Structure (SMILES)
Compound metabolized | CCCc1nc2c(C)cc(-c3nc4ccccc4n3C)cc2n1Cc1ccc(-c2ccccc2C(=O)O)cc1
Compound NOT metabolized | CCN(CC)CCOC(=O)C(Cc1cccc2ccccc12)CC1CCCO1.O=C(O)C(=O)O (stereo not given) [NAFRONYL OXALATE]

Settings: human gut metagenome, 24 h, 2 µM
Remark: another data set of the same source

Bacterial Biotransformation | Structure (SMILES)
Compound metabolized | CCCc1nc2c(C)cc(-c3nc4ccccc4n3C)cc2n1Cc1ccc(-c2ccccc2C(=O)O)cc1
Compound metabolized | CCN(CC)CCOC(=O)C(Cc1cccc2ccccc12)CC1CCCO1.O=C(O)C(=O)O (stereo not given) [NAFRONYL OXALATE]

Assay: as §1, with “Z-019” for “WLS-007”, “rat” for “human”, “ERS12561818” for “ERS12561742”
Settings: 2 µM

Bacterial Biotransformation | Structure (SMILES)
Compound NOT metabolized | CCCc1nc2c(C)cc(-c3nc4ccccc4n3C)cc2n1Cc1ccc(-c2ccccc2C(=O)O)cc1
Compound NOT metabolized | CCN(CC)CCOC(=O)C(Cc1cccc2ccccc12)CC1CCCO1.O=C(O)C(=O)O (stereo not given) [NAFRONYL OXALATE]

Assay: as §1, with “Z-014” for “WLS-007”, “rat” for “human”, “ERS12561814” for “ERS12561742”
Settings: 2 µM

Bacterial Biotransformation | Structure (SMILES)
Compound metabolized | CCCc1nc2c(C)cc(-c3nc4ccccc4n3C)cc2n1Cc1ccc(-c2ccccc2C(=O)O)cc1
Compound NOT metabolized | CCN(CC)CCOC(=O)C(Cc1cccc2ccccc12)CC1CCCO1.O=C(O)C(=O)O (stereo not given) [NAFRONYL OXALATE]

Assay: as §1, with “WLS-220” for “WLS-007”, “ERS12561769” for “ERS12561742”
Settings: 2 µM

Bacterial Biotransformation | Structure (SMILES)
Compound metabolized | CCCc1nc2c(C)cc(-c3nc4ccccc4n3C)cc2n1Cc1ccc(-c2ccccc2C(=O)O)cc1
Compound metabolized | CCN(CC)CCOC(=O)C(Cc1cccc2ccccc12)CC1CCCO1.O=C(O)C(=O)O (stereo not given) [NAFRONYL OXALATE]

Assay: as §1, with “WLS-086” for “WLS-007”, “ERS12561752” for “ERS12561742”
Settings: 2 µM

Bacterial Biotransformation | Structure (SMILES)
Compound metabolized | CCCc1nc2c(C)cc(-c3nc4ccccc4n3C)cc2n1Cc1ccc(-c2ccccc2C(=O)O)cc1
Compound metabolized | CCN(CC)CCOC(=O)C(Cc1cccc2ccccc12)CC1CCCO1.O=C(O)C(=O)O (stereo not given) [NAFRONYL OXALATE]
